The term inhibition denotes the change of the read-out against control, counted positive when it falls. In general, IC50 refers to the point on the concentration scale where inhibition reaches its midpoint.

The nature of data set [1]: Antioxidant activity assessed as trolox equivalent of AAPH radical scavenging activity at 1 to 25 uM preincubated for 15 mins followed by AAPH addition measured every min for 80 mins by ORAC-FL assay. The format is functional.
Data set [2] is described as follows: Cytotoxicity against human SH-SY5Y cells assessed as cell viability at 5 uM after 48 hrs by MTT assay relative to control. The data set is classed as toxicity, cell-based. The settings on record: read-out: Activity. A general note: Tetrazolium assays rely on reduction of a dye to a coloured formazan, in cell work by metabolically active cells.
Data set [3] relates to SH-SY5Y. Kind of data set: Neuroprotective activity against H2O2-induced morphological changes in human SH-SY5Y cells assessed as decrease in cell vacuolation at 20 uM after 24 hrs by phase contrast microscopic method. The format is functional, cell-based.
Data set [4] is described as follows: Cytotoxicity against human SH-SY5Y cells assessed as cell viability at 75 uM after 48 hrs by MTT assay relative to control. The data set is classed as toxicity, cell-based. The settings on record: read-out: Activity.
Data set [5] deals with SH-SY5Y. Kind of data set: Neuroprotective activity against amyloid beta (1 to 42)-induced neurodegeneration in human SH-SY5Y cells assessed as increase in cell viability at 20 uM after 48 hrs by MTT assay. The data set is classed as functional, cell-based.
Data set [6] in a line: Effect on basal ROS level in human SH-SY5Y cells at 5 to 20 uM after 24 hrs by DCFH-DA probe based fluorescence assay. The data set is classed as ADME, cell-based.
Data set [7] has as its system SH-SY5Y. Kind of data set: Neuroprotective activity against H2O2-induced oxidative stress in human SH-SY5Y cells assessed as inhibition of ROS accumulation after 24 hrs by DCFH-DA probe based fluorescence assay. The data set is classed as functional, cell-based.
The test system of data set [8] is SH-SY5Y. Kind of data set: Neuroprotective activity against H2O2-induced morphological changes in human SH-SY5Y cells assessed as decrease in floated appearance at 20 uM after 24 hrs by phase contrast microscopic method. The data set is classed as functional, cell-based.
For data set [9], the system named is SH-SY5Y. Kind of data set: Neuroprotective activity against amyloid beta (1 to 42)-induced morphological changes in human SH-SY5Y cells assessed as decrease in fragmented or rounded floating cells at 20 uM after 48 hrs by phase contrast microscopic method. The data set is classed as functional, cell-based.
Data set [10] deals with SH-SY5Y. Kind of data set: Neuroprotective activity against H2O2-induced morphological changes in human SH-SY5Y cells assessed as decrease in cell rounding at 20 uM after 24 hrs by phase contrast microscopic method. The format is functional, cell-based.
For a further data set, the target named is Acetylcholinesterase (Electrophorus electricus, UniProt O42275). Kind of data set: Inhibition of Electric eel AChE using acetylthiocholine iodide as substrate preincubated for 5 mins followed by substrate addition measured after 2 mins by Ellman's method. Background: In Ellman's method for cholinesterases, released thiocholine reacts with DTNB.
Data set [11] is described as follows: Cytotoxicity against human SH-SY5Y cells assessed as cell viability at 10 uM after 48 hrs by MTT assay relative to control. The format is toxicity, cell-based. As to conditions: read-out: Activity.
Data set [12] concerns SH-SY5Y. Kind of data set: Neuroprotective activity against amyloid beta (1 to 42)-induced morphological changes in human SH-SY5Y cells assessed as decrease in loss of adherence at 20 uM after 48 hrs by phase contrast microscopic method. The data set is classed as functional, cell-based.
Data set [13] in a line: Cytotoxicity against human SH-SY5Y cells assessed as cell viability at 100 uM after 48 hrs by MTT assay relative to control. The format is toxicity, cell-based. As to conditions: read-out: Activity.
Data set [14] in a line: Cytotoxicity against human SH-SY5Y cells assessed as reduction in cell viability after 48 hrs by MTT assay. The data set is classed as toxicity, cell-based.
Data set [15] in a line: Cytotoxicity against human SH-SY5Y cells assessed as cell viability at 25 uM after 48 hrs by MTT assay relative to control. The data set is classed as toxicity, cell-based. As to conditions: read-out: Activity.
The test system of data set [16] is SH-SY5Y. Kind of data set: Neuroprotective activity against amyloid beta (1 to 42)-induced morphological changes in human SH-SY5Y cells assessed as decrease in fading synapses at 20 uM after 48 hrs by phase contrast microscopic method. The data set is classed as functional, cell-based.
Data set [17] can be described thus: Cytotoxicity against human SH-SY5Y cells assessed as cell viability at 50 uM after 48 hrs by MTT assay relative to control. The data set is classed as toxicity, cell-based. As to conditions: read-out: Activity.
The test system of data set [18] is SH-SY5Y. Kind of data set: Neuroprotective activity against amyloid beta (1 to 42)-induced morphological changes in human SH-SY5Y cells assessed as decrease in shrinked cell body at 20 uM after 48 hrs by phase contrast microscopic method. The data set is classed as functional, cell-based.
The target in data set [19] is T1, Amyloid-beta precursor protein (Homo sapiens, UniProt P05067). Kind of data set: Inhibition of HFIP-pretreated amyloid beta (1 to 42) (unknown origin) self-induced aggregation at 25 uM after 48 hrs by thioflavin-T fluorescence assay relative to control.
A further data set concerns the target Cholinesterase (Equus caballus, UniProt P81908). Kind of data set: Inhibition of equine serum BuChE using butyrylthiocholine iodide as substrate preincubated for 5 mins followed by substrate addition measured after 2 mins by Ellman's method. The data set is classed as ADME.
Data set [20] concerns the target T1, Amyloid-beta precursor protein. Kind of data set: Inhibition of HFIP-pretreated amyloid beta (1 to 42) (unknown origin) self-induced aggregation after 48 hrs by thioflavin-T fluorescence assay.
Data set [21] can be described thus: Cytotoxicity against human SH-SY5Y cells assessed as cell viability at 1 uM after 48 hrs by MTT assay relative to control. The settings on record: read-out: Activity. The data set is classed as toxicity, cell-based.
Data set [22] relates to SH-SY5Y. Kind of data set: Neuroprotective activity against H2O2-induced oxidative stress in human SH-SY5Y cells assessed as increase in cell viability at 10 uM after 24 hrs by MTT assay. The format is functional, cell-based.

Calls of active or inactive are those of the source. The calls are words filed in the database; no cut-off is given here.

T1 sequence (P05067 whole entry): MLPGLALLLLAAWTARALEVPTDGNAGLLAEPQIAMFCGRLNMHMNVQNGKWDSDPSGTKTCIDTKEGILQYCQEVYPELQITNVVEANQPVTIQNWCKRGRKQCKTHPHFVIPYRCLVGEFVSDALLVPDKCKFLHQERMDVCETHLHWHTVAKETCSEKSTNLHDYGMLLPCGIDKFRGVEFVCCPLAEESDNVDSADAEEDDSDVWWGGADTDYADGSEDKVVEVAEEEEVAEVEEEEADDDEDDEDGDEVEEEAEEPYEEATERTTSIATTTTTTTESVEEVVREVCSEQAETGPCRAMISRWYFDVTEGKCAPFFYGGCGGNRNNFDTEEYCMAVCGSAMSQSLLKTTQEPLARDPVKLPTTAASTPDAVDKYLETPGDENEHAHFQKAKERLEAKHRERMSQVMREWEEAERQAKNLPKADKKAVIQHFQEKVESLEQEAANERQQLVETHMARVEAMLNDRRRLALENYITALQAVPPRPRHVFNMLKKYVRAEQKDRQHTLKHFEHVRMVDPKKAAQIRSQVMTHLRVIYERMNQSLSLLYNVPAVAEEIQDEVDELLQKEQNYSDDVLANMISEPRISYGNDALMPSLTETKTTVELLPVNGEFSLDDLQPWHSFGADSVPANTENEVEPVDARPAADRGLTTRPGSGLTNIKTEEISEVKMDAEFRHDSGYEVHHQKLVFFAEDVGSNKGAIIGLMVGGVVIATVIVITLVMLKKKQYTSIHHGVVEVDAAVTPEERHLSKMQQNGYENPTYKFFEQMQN
Chain of Acetylcholinesterase (O42275 whole entry): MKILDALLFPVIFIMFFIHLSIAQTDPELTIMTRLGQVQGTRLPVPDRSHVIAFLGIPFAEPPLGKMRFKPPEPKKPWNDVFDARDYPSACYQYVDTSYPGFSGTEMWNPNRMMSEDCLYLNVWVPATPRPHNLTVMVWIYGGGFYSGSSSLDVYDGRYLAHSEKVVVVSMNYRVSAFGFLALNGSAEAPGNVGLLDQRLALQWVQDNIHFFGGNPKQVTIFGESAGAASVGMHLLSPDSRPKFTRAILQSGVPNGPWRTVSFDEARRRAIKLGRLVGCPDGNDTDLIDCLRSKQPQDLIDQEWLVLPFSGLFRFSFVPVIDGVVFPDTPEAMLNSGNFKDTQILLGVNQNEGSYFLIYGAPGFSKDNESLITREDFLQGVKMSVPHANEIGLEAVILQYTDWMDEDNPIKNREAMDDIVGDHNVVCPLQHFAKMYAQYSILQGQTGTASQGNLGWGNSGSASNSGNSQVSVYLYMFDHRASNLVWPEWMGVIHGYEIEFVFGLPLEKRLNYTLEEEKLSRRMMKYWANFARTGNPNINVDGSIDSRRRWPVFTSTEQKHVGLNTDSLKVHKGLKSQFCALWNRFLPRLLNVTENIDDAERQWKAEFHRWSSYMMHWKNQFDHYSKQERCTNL
Chain of Cholinesterase (P81908 whole entry): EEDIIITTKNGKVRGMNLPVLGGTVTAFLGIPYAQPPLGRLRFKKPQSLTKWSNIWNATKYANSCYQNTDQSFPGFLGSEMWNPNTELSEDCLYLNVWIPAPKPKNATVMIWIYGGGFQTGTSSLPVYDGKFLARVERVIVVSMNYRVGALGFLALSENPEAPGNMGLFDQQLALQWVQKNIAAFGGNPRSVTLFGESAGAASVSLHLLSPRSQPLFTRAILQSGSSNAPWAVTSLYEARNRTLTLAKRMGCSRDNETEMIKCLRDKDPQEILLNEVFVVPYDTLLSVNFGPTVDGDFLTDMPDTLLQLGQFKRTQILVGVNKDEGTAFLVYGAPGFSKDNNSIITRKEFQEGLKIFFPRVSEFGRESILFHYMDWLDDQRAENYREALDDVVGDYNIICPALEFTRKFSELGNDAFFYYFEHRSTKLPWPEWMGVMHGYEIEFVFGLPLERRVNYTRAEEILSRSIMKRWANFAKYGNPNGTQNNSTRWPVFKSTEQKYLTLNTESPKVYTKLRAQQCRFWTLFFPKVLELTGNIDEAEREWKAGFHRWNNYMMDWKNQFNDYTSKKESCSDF

On to `COc1cc2c(cc1OC)C(=O)/C(=C/c1ccc(N3CCN(C(=O)c4ccoc4)CC3)cc1)C2`, for which the Activity (umolequiv/umol) in data set [1] was 3.89. Besides, in data set [2], the viability at 48 h, 5 µM worked out at 94.4%. Moreover, the outcome in the data set on SH-SY5Y [3], in the data set on SH-SY5Y [5], with SH-SY5Y [8], with SH-SY5Y [9], in the data set with SH-SY5Y [10] and with SH-SY5Y [12] was Active. The result in the data set with SH-SY5Y [16], with SH-SY5Y [18] and in the data set with SH-SY5Y [22] was Active. Moreover, in [4], the viability at 48 h, 75 µM came to 83.7%. The figures for the Activity result in data set [6] and in [14] were “Non-Toxic” and “Dose-dependent effect”, respectively. For the same compound, the inhibition entry in the data set with SH-SY5Y [7] was “Dose-dependent effect”; in data set [19], 80.4%. For the same compound, the IC50 against Acetylcholinesterase was found to be 34 nM; on Cholinesterase, 1970 nM; in [20], 10900 nM. In addition, the viability at 48 h, 10 µM in data set [11] was determined as 92.3%. Moreover, the viability at 48 h, 100 µM in data set [13] was 81.1%. The viability at 48 h, 25 µM in data set [15] is 90.1%. Further, in [17], the viability at 48 h, 50 µM was determined as 86.9%. Besides, in data set [21], the viability at 48 h, 1 µM is 96%.

The values are drawn from ChEMBL document CHEMBL3877279, “Design, synthesis, in-silico and biological evaluation of novel donepezil derivatives as multi-target-directed ligands for the treatment of Alzheimer's disease” (Eur J Med Chem, 2017).
